The subject of one series is P388 leukemia. The note with it: cited from earlier work.
Series [1] has as its system human small cell lung cancer cell line SW2. As to the kind of experiment: In vitro cytotoxicity to SW2 cells, 24 h exposure, growth back-extrapolation assay. It is filed as cell-based. The note with it: 24 h exposure to the drug, read-out: IC50, free drug, SW2 cells. How it is done:
Disulfide-containing and mercapto-containing analogues and derivatives of CC-1065 of the invention can be evaluated for their ability to suppress proliferation of various unwanted cell lines in vitro. For example, cell lines such as the human epidermoid carcinoma line KB, the human breast tumor line SKBR3, and the Burkitt's lymphoma line Namalwa can easily be used for the assessment of cytotoxicity of these compounds. Cells to be evaluated can be exposed to the compounds for 24 hours and the surviving fractions of cells measured in direct assays by known methods. IC50 values can then be calculated from the results of the assays.
Cytotoxicity of the analogues and derivatives of CC-1065 and their conjugates with cell binding agents to non-adherent cell lines such as Namalwa and SW2 can be measured by back-extrapolation of cell proliferation curves as described in Goldmacher et al, 135 J. Immunol. […] Cytotoxicity of these compounds to adherent cell lines such as A-375 and SCaBER can be determined by clonogenic assays as described in Goldmacher et al, 102 J. Cell Biol. 1312-1319 (1986). […]
In vitro cytotoxicity of N901-SS-Drug 7. The in vitro cytotoxicity of a disulfide-linked conjugate of the mono-indolyl CPI derivative 7 with the antibody N901, containing on the average 3.3 drug molecules per antibody molecule, was measured on antigen positive SW2 cells and antigen negative Namalwa cells. […]

For series [2] the following is noted: single i.v. dose of 12.5 μg/kg; cited from earlier work.
The conditions of series [3]: in vitro; cited from earlier work.

The structures appear in SMILES notation.

In the case of `Cc1c[nH]c2c1[C@@]13C[C@@H]1CN(C(=O)c1cc4cc(NC(=O)c5cc6ccccc6o5)ccc4[nH]1)C3=CC2=O` [U-73975], the “treated mice surviving beyond 30 days” value with P388 leukemia (0.05 mg/kg i.p. on days 1, 5 and 9) is on record as 1 out of 6. In addition, in the series on P388 leukemia (optimal dose 0.05 mg/kg i.p. on days 1, 5 and 9), the “increase in life span over untreated controls” value was 170%.

`COc1c(O)c2c(c3cc(C(=O)N4CCc5c4c(O)c(OC)c4[nH]c(C(=O)N6CC7CC78C6=CC(=O)c6[nH]cc(C)c68)cc54)[nH]c13)CCN2C(N)=O` (centres unmarked) [CC-1065]: in series [1], the IC50 is 200 pM. Further, in series [2], the “delayed hepatotoxicity leading to death, time of death” value is reported as 50 days. Also, the “fold more cytotoxic than methotrexate, daunorubicin and vincristine” value in series [3] is reported as 100 to 1000 fold.

These data come from patent publication US5846545A, “Targeted delivery of cyclopropylbenzindole-containing cytotoxic drugs” (Immunogen, Inc., priority 1995, dated 1998).
